pIC50: −log10 of the molar value.
Tested on: coculture of keratinocytes and of melanocytes
Test: depigmenting activity test: inhibition of melanogenesis on a coculture of keratinocytes and of melanocytes
Format: cell-based
Conditions: for Category (maximum depigmenting activity): inhibition of melanogenesis with respect to the control; for pIC50: coculture of keratinocytes and melanocytes, read-out: IC50 (concentration at which 50% inhibition of melanogenesis is observed)
Protocol: This test corresponds to that described in Patent FR 2,734,825, filed by the Applicant Company, and in the article by R. Schmidt, P. Krien and M. Régnier, Anal. Biochem., 235(2), 113-18 (1996). This test is thus carried out on a coculture of keratinocytes and of melanocytes.
The IC50 value, which corresponds to the micromolar concentration (μM) at which 50% inhibition of melanogenesis is observed, is determined for each compound tested.
Furthermore, a category is given to each of these compounds for their maximum depigmenting activity:
category 1: 10 to 30% inhibition of melanogenesis with respect to the control (same experiment without compound to be tested);
category 2: 30 to 60% inhibition of melanogenesis with respect to the control (same experiment without compound to be tested);
category 3: 60 to 100% inhibition of melanogenesis with respect to the control (same experiment without compound to be tested).

SMILES: O=c1cc(CO)occ1O [Kojic acid]
- Category (maximum depigmenting activity) (at 500 μM): 2 at 500 μM (category 2: 30 to 60% inhibition of melanogenesis with respect to the control)
- pIC50: 3.30

SMILES: CN(C)C=Nc1ccc(O)cc1 [N′-(4-hydroxyphenyl)-N,N-dimethylformamidine]
- Category (maximum depigmenting activity) (at 50 μM): 2 at 50 μM (category 2: 30 to 60% inhibition of melanogenesis with respect to the control)
- pIC50: 3.70
